Source: patent US20110077237A1, “KINASE INHIBITORS” (VERTEX PHARMACEUTICALS INCORPORATED, priority 2007, published 2011)

Columns and labels:
Format in all cases: biochemical
PKC theta [1] = biological target: T1, PKC theta (Homo sapiens, UniProt Q04759); experiment: PKC Theta III assay, similar to PKC theta I with fluorescence read out; settings: fluorescence read out rather than UV
Experimental: An assay buffer solution was prepared which consisted of 100 mM HEPES (pH 7.5), 10 mM MgCl2, 25 mM NaCl, 0.1 mM EDTA and 0.01% Brij. […] To 60 μL of this enzyme buffer, in a 384 well plate, was added 2 μL of VRT stock solution in DMSO. The mixture was allowed to equilibrate for 10 mins at 30° C. The enzyme reaction was initiated by the addition of 5 μL stock ATP solution prepared in assay buffer to a final assay concentration of 240 μM. Initial rate data was determined from the rate of change of absorbance at 340 nm (corresponding to stoichiometric consumption of NADH) using a Molecular Devices Spectramax plate reader (Sunnyvale, Calif.) over 15 mins at 30° C. For each Ki determination 12 data points covering the VRT concentration range of 0-20 μM were obtained in duplicate (DMSO stocks were prepared from an initial 10 mM VRT stock with subsequent 1:2 serial dilutions). Ki values were calculated from initial rate data by non-linear regression using the Prism software package (Prism 4.0a, Graphpad Software, San Diego, Calif.).
Compounds tested in an assay similar to PKC theta I above with a fluorescence read out rather than a UV read out gave the following results: D compounds are (2-aminopyridin-3-yl)(6-(1-benzylpiperidin-4-ylamino)pyridin-2-yl)methanone, and (2-aminopyridin-3-yl)(6-(2,3-dihydroxypropylamino)pyridin-2-yl)methanone (naming by ChemDraw Ultre version 10.0).

PKC alpha kinase = PKC alpha kinase (Homo sapiens, UniProt P17252); experiment: PKC Alpha coupled-enzyme kinase assay; settings: 4.5 nM PKC alpha, 130 μM ATP, 30° C.
In short: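 Coupled-enzyme assay in HEPES pH 7.5 with MgCl2, CaCl2, EDTA and Brij; enzyme preincubated with compound 10 min at 30 °C, reaction started with ATP (final 130 μM).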

PKC delta kinase = PKC delta kinase (Homo sapiens, UniProt Q05655); experiment: PKC Delta coupled-enzyme kinase assay; settings: 46 nM PKC delta, 150 μM ATP, 30° C.; read-out: Ki PKC delta
PKC delta kinase, sequence (Q05655 whole entry): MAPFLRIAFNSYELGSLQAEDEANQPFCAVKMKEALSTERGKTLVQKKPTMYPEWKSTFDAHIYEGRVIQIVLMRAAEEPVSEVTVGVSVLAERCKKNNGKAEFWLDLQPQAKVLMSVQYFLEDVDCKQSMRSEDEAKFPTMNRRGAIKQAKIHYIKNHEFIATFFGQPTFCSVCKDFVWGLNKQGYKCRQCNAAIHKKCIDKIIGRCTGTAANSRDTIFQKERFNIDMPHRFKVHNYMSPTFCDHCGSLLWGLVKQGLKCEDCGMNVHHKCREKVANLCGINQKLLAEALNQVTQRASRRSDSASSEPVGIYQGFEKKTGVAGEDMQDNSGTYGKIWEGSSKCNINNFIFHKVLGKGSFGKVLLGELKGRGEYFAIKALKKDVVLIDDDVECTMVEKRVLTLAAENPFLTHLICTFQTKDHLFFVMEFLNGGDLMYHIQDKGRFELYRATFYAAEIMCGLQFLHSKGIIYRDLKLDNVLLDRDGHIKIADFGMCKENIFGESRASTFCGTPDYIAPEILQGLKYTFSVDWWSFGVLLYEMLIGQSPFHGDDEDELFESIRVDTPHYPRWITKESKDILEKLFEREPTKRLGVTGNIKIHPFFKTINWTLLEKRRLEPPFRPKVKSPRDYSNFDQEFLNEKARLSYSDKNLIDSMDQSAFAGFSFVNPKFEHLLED
In short: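 Assay buffer was 100 mM HEPES pH 7.5, 10 mM MgCl2, 25 mM NaCl, 0.1 mM EDTA, 0.01% Brij. Enzyme buffer was equilibrated with compound in DMSO for 10 min at 30 °C. Ki values were derived by non-linear regression of initial rate data.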

PKC theta [2] = biological target: T1, PKC theta; experiment: PKC Theta II 33P radiometric kinase assay; settings: 0.5 nM PKC theta, 240 μM ATP, [γ-33P] ATP, 25° C., compound range 0-0.25 μM
Experimental: An assay buffer solution was prepared which consisted of 100 mM HEPES (pH 7.5), 10 mM MgCl2, 25 mM NaCl, 0.1 mM EDTA and 0.01% Brij. An enzyme buffer containing reagents to final assay concentrations of 0.002% Triton X-100, 200 μg/mL Phosphatidylserine, 20 μg/mL Diacylglycerol, 2 mM DTT, 150 μM substrate peptide ([…]) and 0.5 nM PKC theta kinase was prepared in assay buffer. To 22 μL of this enzyme buffer, in a 96 well plate, was added 2 μL of VRT stock solution in DMSO. The mixture was allowed to equilibrate for 10 mins at 25° C. […] ATP.
The reaction was stopped after 60 minutes by the addition of 100 μL 100 mM phosphoric acid. A phosphocellulose 96 well plate (Millipore, Cat no. MAPHNOB) was washed with […] 100 mM phosphoric acid prior to the addition of the reaction mixture (120 μL) and was left to soak for at least 30 minutes, prior to wash steps (4×200 μL 100 mM phosphoric acid). After drying, 100 μL Optiphase ‘SuperMix’ liquid scintillation cocktail (Perkin Elmer) was added to the well prior to scintillation counting (1450 Microbeta Liquid Scintillation Counter, Wallac).
For each Ki determination, 11 data points covering the VRT concentration range of 0-0.25 μM were obtained in duplicate (DMSO stocks were prepared from an initial 10 mM VRT stock with subsequent 1:2 serial dilutions). Ki values were calculated from initial rate data by non-linear regression using the Prism software package (Prism 4.0a, Graphpad Software, San Diego, Calif.).

T1 sequence (Q04759 whole entry): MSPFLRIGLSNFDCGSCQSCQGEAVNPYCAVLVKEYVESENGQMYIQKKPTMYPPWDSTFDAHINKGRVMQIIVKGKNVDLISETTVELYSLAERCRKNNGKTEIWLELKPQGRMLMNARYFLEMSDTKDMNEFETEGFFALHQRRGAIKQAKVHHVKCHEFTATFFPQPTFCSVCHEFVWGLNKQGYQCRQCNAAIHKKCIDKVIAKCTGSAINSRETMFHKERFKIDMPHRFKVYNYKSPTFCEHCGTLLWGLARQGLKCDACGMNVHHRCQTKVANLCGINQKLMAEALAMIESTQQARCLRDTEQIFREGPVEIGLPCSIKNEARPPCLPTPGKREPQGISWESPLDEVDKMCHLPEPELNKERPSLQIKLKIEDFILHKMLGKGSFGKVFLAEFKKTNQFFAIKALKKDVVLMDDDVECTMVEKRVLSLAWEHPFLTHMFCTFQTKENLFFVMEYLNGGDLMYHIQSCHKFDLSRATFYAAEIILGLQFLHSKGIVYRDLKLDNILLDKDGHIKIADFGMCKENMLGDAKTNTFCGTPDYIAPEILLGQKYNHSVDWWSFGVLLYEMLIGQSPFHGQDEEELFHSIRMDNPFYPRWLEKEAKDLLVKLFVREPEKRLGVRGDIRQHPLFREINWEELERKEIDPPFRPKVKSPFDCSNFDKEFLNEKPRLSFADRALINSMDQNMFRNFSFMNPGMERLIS

SMILES | Ki (PKC theta [1]) [nM] | Ki (PKC alpha kinase) [nM] | Ki (PKC delta kinase) [nM] | Ki (PKC theta [2]) [nM]
Nc1ncccc1C(=O)c1cccc(NCC(O)CO)n1 (centres unmarked) [(2-aminopyridin-3-yl)(6-(2,3-dihydroxypropylamino)pyridin-2-yl)methanone] | > 2800 | – | – | –
Nc1ncccc1C(=O)c1cccc(NC2CCN(Cc3ccccc3)CC2)n1 [(2-aminopyridin-3-yl)(6-(1-benzylpiperidin-4-ylamino)pyridin-2-yl)methanone] | > 2800 | – | – | –
Nc1ncc(Br)cc1C(=O)c1cccc(N2CCCNCC2)n1 [compound 14, (6-(1,4-diazepan-1-yl)pyridin-2-yl)(2-amino-5-bromopyridin-3-yl)methanone] | – | < 50 | 50 to 500 | < 50
